Among the test systems are SF-295 CNS; UACC-62 melanoma; SK-MEL-5 melanoma; EKVX NSCLC; U251 CNS; NCI-H226 lung; HCC-2998 colon; SF-268 CNS; MOLT-4 leukemia; UACC-257 melanoma.
Holding throughout (assay): DTP human tumour cell line panel, 48 h

Where “and” joins values, the source holds several entries; their conditions need not be identical. Identical values can stand only once.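 A five-concentration, 48-hour dose response in 96-well plates underlies each endpoint, interpolated linearly between surrounding concentrations. Here, GI50 denotes the concentration required for 50% inhibition of growth. TGI denotes the concentration required for complete inhibition of growth.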

Broadly, the GI50 is the concentration at which growth is held to half of that of the control. Usually TGI stands for the concentration at which net growth stops. As for `COc1ccc(C2C3=C(COC3=O)N(CCO)c3cc4c(cc32)CCC4)cc1OC` (centres undefined), the GI50 in the experiment on SF-295 CNS was 171 nM; in the experiment on UACC-62 melanoma it was 318 nM; with SK-MEL-5 melanoma, 246 nM; with EKVX NSCLC it was 2950 nM; in the experiment with U251 CNS, 1150 nM; in the experiment on NCI-H226 lung, > 10700 nM. The GI50 is 945 nM with HCC-2998 colon, 1780 nM in the experiment with SF-268 CNS, 2100 nM with MOLT-4 leukemia and > 50000 nM in the experiment on UACC-257 melanoma. Besides, the concentration for total growth inhibition (TGI) was 1310 nM in the experiment with SF-295 CNS; > 50000 nM in the experiment with UACC-62 melanoma; > 50000 nM in the experiment with SK-MEL-5 melanoma; > 50000 nM in the experiment on EKVX NSCLC; > 50000 nM in the experiment with U251 CNS; > 50000 nM with NCI-H226 lung. Moreover, the TGI in the experiment on HCC-2998 colon was > 16300 nM; in the experiment on SF-268 CNS, > 50000 nM; with MOLT-4 leukemia, > 50000 nM; in the experiment on UACC-257 melanoma, > 50000 nM.

For `COc1cc2cc(Oc3ccc(NC(=O)Nc4cc(C(F)(F)F)cc(C(F)(F)F)c4)cc3)c(C)nc2cc1OCCN1CCCCC1`, the GI50 in the experiment with SF-295 CNS was 1830 nM; in the experiment with UACC-62 melanoma it was 1820 nM; in the experiment on SK-MEL-5 melanoma, 1690 nM; with EKVX NSCLC, 1810 nM; in the experiment with U251 CNS, 1790 nM; in the experiment on NCI-H226 lung it was 1700 nM. Besides, the GI50 in the experiment on HCC-2998 colon was 1780 nM; with SF-268 CNS, 1690 nM; in the experiment on MOLT-4 leukemia, 1730 nM; in the experiment with UACC-257 melanoma, 1980 nM. The TGI is 3380 nM in the experiment on SF-295 CNS; 3310 nM in the experiment with UACC-62 melanoma; 3080 nM in the experiment on SK-MEL-5 melanoma; 3440 nM in the experiment on EKVX NSCLC; 3410 nM in the experiment on U251 CNS; 3960 nM in the experiment with NCI-H226 lung. Further, the TGI amounted to 3290 nM in the experiment with HCC-2998 colon, 3370 nM in the experiment on SF-268 CNS, 3700 nM in the experiment on MOLT-4 leukemia and 3970 nM with UACC-257 melanoma.

With `O=C(N/N=C\c1cc(Br)cc(Br)c1O)N/N=C/c1cc(Br)cc(Br)c1O`, the GI50 is 2480 nM with SF-295 CNS; 1800 nM with UACC-62 melanoma; 1830 nM with SK-MEL-5 melanoma; 4090 nM in the experiment with EKVX NSCLC; 2140 nM in the experiment with U251 CNS; 2230 nM in the experiment with NCI-H226 lung. Moreover, the GI50 with HCC-2998 colon was 13400 nM; with SF-268 CNS, 1470 nM; in the experiment on MOLT-4 leukemia, 2140 nM; with UACC-257 melanoma, 2480 nM. The TGI in the experiment on SF-295 CNS is 15700 nM; with UACC-62 melanoma, 10200 nM; in the experiment on SK-MEL-5 melanoma, 4690 nM; in the experiment with EKVX NSCLC it was 17800 nM; in the experiment on U251 CNS it was 15700 nM; with NCI-H226 lung, 9820 nM. The TGI in the experiment with HCC-2998 colon stood at 32500 nM; with SF-268 CNS, 12000 nM; with MOLT-4 leukemia, 11400 nM; in the experiment on UACC-257 melanoma it was 8920 nM.

Take `CCc1cc(Nc2nccc(-c3c(-c4ccc(OC)c(C(=O)Nc5c(F)cccc5F)c4)nc4ccccn34)n2)c(OC)cc1N1CCC(N2CCN(S(C)(=O)=O)CC2)CC1`: the GI50 with SF-295 CNS was > 100000 nM; with UACC-62 melanoma it was > 100000 nM; in the experiment with SK-MEL-5 melanoma, > 64800 nM; with EKVX NSCLC, > 100000 nM; with U251 CNS, > 100000 nM; with NCI-H226 lung it was > 69300 nM. For the same compound, the GI50 with HCC-2998 colon was > 100000 nM; in the experiment on SF-268 CNS, > 100000 nM; with MOLT-4 leukemia it was > 100000 nM; in the experiment on UACC-257 melanoma it was > 40100 nM. For the same compound, the TGI in the experiment on SF-295 CNS, with UACC-62 melanoma, in the experiment with SK-MEL-5 melanoma, in the experiment with EKVX NSCLC, in the experiment with U251 CNS and in the experiment on NCI-H226 lung was > 100000 nM in each case. Besides, the TGI in the experiment with HCC-2998 colon, in the experiment on SF-268 CNS, in the experiment on MOLT-4 leukemia and with UACC-257 melanoma was > 100000 nM throughout.

For the compound `c1cc[c]([Sn]([O]c2cccc3cccnc23)([c]2ccccc2)[c]2ccccc2)cc1`, the GI50 in the experiment with SF-295 CNS was 30.6 nM; in the experiment with UACC-62 melanoma, < 10 nM; in the experiment on SK-MEL-5 melanoma it was 18.6 nM; in the experiment with EKVX NSCLC it was 41.6 nM; with U251 CNS it was 18.4 nM; with NCI-H226 lung, 45.4 nM. Further, the 50% growth inhibitory concentration (GI50) was 23.6 nM with HCC-2998 colon, 12.8 nM in the experiment with SF-268 CNS, 10.2 nM in the experiment on MOLT-4 leukemia and 33.4 nM in the experiment on UACC-257 melanoma. For the same compound, the concentration for total growth inhibition (TGI) in the experiment on SF-295 CNS amounted to 76.1 nM; with UACC-62 melanoma, 18.8 nM; in the experiment on SK-MEL-5 melanoma, 42.2 nM; with EKVX NSCLC, 170 nM; in the experiment with U251 CNS, 37.4 nM; in the experiment with NCI-H226 lung it was 153 nM. For the same compound, the TGI is 62.5 nM in the experiment on HCC-2998 colon, 27.5 nM in the experiment on SF-268 CNS, 40.2 nM in the experiment with MOLT-4 leukemia and 117 nM with UACC-257 melanoma.

In the case of `COc1ccc(CN[C@H]2CCc3cc(OC)c(OC)c(OC)c3-c3ccc(SC)c(=O)cc32)c(OC)c1OC`, the GI50 with SF-295 CNS was 16.7 nM; with U251 CNS, 29.9 nM; in the experiment on NCI-H226 lung it was 17.2 nM; in the experiment with HCC-2998 colon it was 23.8 nM; with SF-268 CNS, 11.1 nM; with UACC-257 melanoma, 37 nM. Moreover, the TGI with SF-295 CNS was > 100000 nM; in the experiment with UACC-62 melanoma, 19100 nM; in the experiment with SK-MEL-5 melanoma, 257 nM; in the experiment with EKVX NSCLC, > 100000 nM; in the experiment with U251 CNS it was 44.4 nM and 103 nM; with NCI-H226 lung, 73.6 nM and 50.9 nM. Moreover, the TGI in the experiment on HCC-2998 colon was 41.3 nM and 65.7 nM; with MOLT-4 leukemia it was > 100000 nM; in the experiment with UACC-257 melanoma, > 100000 nM.

With `CN(C)/C=C/C(=O)c1cccc(C(=O)/C=C/N(C)C)n1`, the TGI in the experiment with SF-295 CNS, with UACC-62 melanoma, with SK-MEL-5 melanoma, with EKVX NSCLC, in the experiment with U251 CNS and with NCI-H226 lung was > 100000 nM throughout. The TGI with HCC-2998 colon, with SF-268 CNS, with MOLT-4 leukemia and in the experiment with UACC-257 melanoma was > 100000 nM throughout.

`C=C1C(=O)O[C@H]2[C@H]1CC/C(COC(=O)c1ccc(Br)cc1)=C\CC[C@@]1(C)O[C@@H]21`: the GI50 in the experiment on SF-295 CNS is 1670 nM; with UACC-62 melanoma, 1480 nM; in the experiment with SK-MEL-5 melanoma it was 1810 nM; in the experiment with EKVX NSCLC, 1760 nM; in the experiment on U251 CNS, 1550 nM; in the experiment with NCI-H226 lung, 2060 nM. For the same compound, the GI50 with HCC-2998 colon is 2050 nM; in the experiment with SF-268 CNS, 1550 nM; in the experiment with MOLT-4 leukemia, 1170 nM; in the experiment with UACC-257 melanoma it was 1650 nM. The total growth inhibition concentration (TGI) with SF-295 CNS was 3570 nM; in the experiment on UACC-62 melanoma, 2940 nM; in the experiment on SK-MEL-5 melanoma, 3280 nM; in the experiment with EKVX NSCLC, 4050 nM; in the experiment on U251 CNS, 2980 nM; in the experiment on NCI-H226 lung it was 4570 nM. Besides, the total growth inhibition concentration (TGI) came out at 4270 nM in the experiment on HCC-2998 colon, 3140 nM with SF-268 CNS, 6060 nM with MOLT-4 leukemia and 3350 nM in the experiment on UACC-257 melanoma.

For the compound `NC(=S)c1cn(C2OC(CO)C(O)C2O)c2ncnc(N)c12` (centres undefined), the GI50 was 287 nM in the experiment with SF-295 CNS; 124 nM in the experiment with UACC-62 melanoma; 223 nM in the experiment with SK-MEL-5 melanoma; 250 nM in the experiment with EKVX NSCLC; 292 nM in the experiment with U251 CNS; 602 nM in the experiment on NCI-H226 lung. The GI50 is 208 nM in the experiment with HCC-2998 colon, 284 nM in the experiment on SF-268 CNS, 38.6 nM in the experiment on MOLT-4 leukemia and 166 nM with UACC-257 melanoma. The TGI in the experiment with SF-295 CNS is 3070 nM; with UACC-62 melanoma, 406 nM; in the experiment with SK-MEL-5 melanoma, 975 nM; with U251 CNS, 8710 nM; with NCI-H226 lung, > 21100 nM; in the experiment with HCC-2998 colon, 998 nM. The TGI in the experiment with SF-268 CNS amounted to 3400 nM; in the experiment on MOLT-4 leukemia, 261 nM; in the experiment with UACC-257 melanoma, 571 nM.

`CC[C@@]1(O)C(=O)N(CCN(C)C)Cc2c1cc1n(c2=O)Cc2cc3ccccc3nc2-1`: the GI50 with SF-295 CNS is 5630 nM; in the experiment with UACC-62 melanoma, 7200 nM; in the experiment on SK-MEL-5 melanoma, > 25200 nM; in the experiment on EKVX NSCLC, > 67900 nM; with U251 CNS it was 18900 nM; in the experiment with NCI-H226 lung, 64300 nM. In addition, the GI50 was 39700 nM in the experiment on HCC-2998 colon, 3590 nM with SF-268 CNS, 3930 nM in the experiment with MOLT-4 leukemia and > 100000 nM in the experiment on UACC-257 melanoma. Moreover, the total growth inhibition concentration (TGI) in the experiment on SF-295 CNS is > 100000 nM; in the experiment on UACC-62 melanoma it was > 100000 nM; with SK-MEL-5 melanoma, > 56100 nM; in the experiment on EKVX NSCLC, > 100000 nM; with U251 CNS, > 100000 nM; in the experiment on NCI-H226 lung, > 100000 nM. The TGI in the experiment with HCC-2998 colon, in the experiment with SF-268 CNS, with MOLT-4 leukemia and with UACC-257 melanoma was > 100000 nM in each case.

In the case of `COC(=O)C([O][Ge]([CH3])([CH3])[CH3])c1ccccc1` (centres undefined), the GI50 with SF-295 CNS, in the experiment on UACC-62 melanoma, in the experiment with SK-MEL-5 melanoma, in the experiment on EKVX NSCLC, in the experiment on U251 CNS and in the experiment on NCI-H226 lung was > 100000 nM throughout. Also, the GI50 with HCC-2998 colon, with SF-268 CNS, in the experiment on MOLT-4 leukemia and in the experiment with UACC-257 melanoma was > 100000 nM each time. Moreover, the TGI in the experiment on SF-295 CNS, in the experiment with UACC-62 melanoma, in the experiment with SK-MEL-5 melanoma, with EKVX NSCLC, with U251 CNS and with NCI-H226 lung was > 100000 nM throughout. For the same compound, the concentration for total growth inhibition (TGI) in the experiment with HCC-2998 colon, in the experiment on SF-268 CNS, with MOLT-4 leukemia and in the experiment with UACC-257 melanoma was > 100000 nM each time.

These data come from PubChem BioAssay (NCI).
